21 molecules from patent publication US11352330B2, “Phenoxymethyl derivatives” (Hoffmann-La Roche Inc., priority 2015, dated 2022) can be followed below.

The term IC50 denotes the concentration that gives 50% inhibition. Higher therefore signals a need for much substance.

The target of the test is human ATX (Homo sapiens (Human), UniProt Q13822). The test is described as follows: Human ATX enzyme inhibition assay (fluorescence quenching, MR121 substrate). Type of test: biochemical. The settings on record: human His-tagged ATX 30 nM, MR121 substrate 1 μM, 30° C. As to the method: Human ATX Enzyme Inhibition Assay
ATX inhibition was measured by a fluorescence quenching assay using a specifically labeled substrate analogue (MR121 substrate). To obtain this MR121 substrate, BOC and TBS protected 6-amino-hexanoic acid (R)-3-({2-[3-(2-{2-[2-(2-amino-ethoxy)-ethoxy]-ethoxy}-ethoxy)-propionylamino]-ethoxy}-hydroxy-phosphoryloxy)-2-hydroxy-propyl ester (Ferguson et al., Org Lett 2006, 8 (10), 2023) was labeled with MR121 fluorophore (CAS 185308-24-1, 1-(3-carboxypropyl)-11-ethyl-1,2,3,4,8,9,10,11-octahydro-dipyrido[3,2-b:2′,3′-i]phenoxazin-13-ium) on the free amine of the ethanolamine side and then, after deprotection, subsequently with tryptophan on the side of the aminohexanoic acid.
Assay working solutions were made as follows:
Assay buffer (50 mM Tris-HCl, 140 mM NaCl, 5 mM KCl, 1 mM CaCl2, 1 mM MgCl2, 0.01% Triton-X-100, pH 8.0;
ATX solution: ATX (human His-tagged) stock solution (1.08 mg/mL in 20 mM bicine, pH 8.5, 0.15 M NaCl, 10% glycerol, 0.3% CHAPS, 0.02% NaN3), diluted to 1.4-2.5× final concentration in assay buffer;
MR121 substrate solution: MR121 substrate stock solution (800 μM MR121 substrate in DMSO), diluted to 2-5× final concentration in assay buffer.
Test compounds (10 mM stock in DMSO, 8 μL) were obtained in 384 well sample plates (Corning Costar #3655) and diluted with 8 μL DMSO. Row-wise serial dilutions were made by transferring 8 μL cpd solution to the next row up to row O. The compound and control solutions were mixed five times and 2 μL were transferred to 384 well assay plates (Corning Costar #3702). Then, 15 μL of 41.7 nM ATX solution was added (30 nM final concentration), mixed five times and then incubated for 15 minutes at 30° C. 10 μL of MR121 substrate solution was added (1 μM final concentration), mixed 30 times and then incubated for 15 minutes at 30° C.

Structures are written as SMILES.

As to `Cc1cc(OCc2n[nH]c(=O)n2C)c(-c2ncco2)cc1Cl` [Example B29, 3-[[4-Chloro-5-methyl-2-(1,3-oxazol-2-yl)phenoxy]methyl]-4-methyl-1H-1,2,4-triazol-5-one], 78 nM corresponded to half-maximal inhibition (IC50).
The result for `Cc1cc(OCc2n[nH]c(=O)n2C)c(-c2ccnn2C)cc1Cl` [Example B30] reads 467 nM.
Under `Cn1c(COc2cc(Cl)c(C#N)cc2-c2ccccc2)n[nH]c1=O` [Example B31] stands 43 nM.
The molecule `Cn1c(COc2cc(Cl)c(C#N)cc2-c2ccc(F)cc2)n[nH]c1=O` [Example B32] gave an IC50 of 31 nM.
In turn, `CNC(=O)c1cccc(-c2cc(C#N)c(Cl)cc2OCc2n[nH]c(=O)n2C)c1` [Example B33] returned an IC50 of 115 nM.
`Cn1c(COc2cc(Cl)c(C#N)cc2-c2cccc(-c3cc[nH]n3)c2)n[nH]c1=O` [Example B34, 2-Chloro-4-[(4-methyl-5-oxo-1H-1,2,4-triazol-3-yl)methoxy]-5-[3-(H-pyrazol-3-yl)phenyl]benzonitrile] had an IC50 of 51 nM.
For `Cc1nc(-c2cccc(-c3cc(C#N)c(Cl)cc3OCc3n[nH]c(=O)n3C)c2)no1` [Example B35], the IC50 was 81 nM.
Under `Cc1cc(OCc2n[nH]c(=O)n2C)c(-c2cccc(C(=O)NCCO)c2)cc1Cl` [Example B36] stands 82 nM.
Take `Cc1nnc(-c2cccc(-c3cc(C#N)c(Cl)cc3OCc3n[nH]c(=O)n3C)c2)o1` [Example B37]: the IC50 came to 79 nM.
`Cc1cc(OCc2n[nH]c(=O)n2C)c(-c2cc(C(=O)N(C)C)ccc2F)cc1Cl` [Example B38] registered an IC50 of 8 nM.
In turn, `CN(C)C(=O)c1cccc(-c2cc(C#N)c(Cl)cc2OCc2n[nH]c(=O)n2C)c1` [Example B39] came in with an IC50 of 93 nM.
`Cc1cc(OCc2n[nH]c(=O)n2C)c(-c2cc(C(=O)N3CCOCC3)ccc2F)cc1Cl` [Example B40]: the IC50 was 15 nM.
Under `Cn1c(COc2cc(Cl)c(C#N)cc2-c2cccc(C(=O)N3CCOCC3)c2)n[nH]c1=O` [Example B41] stands 40 nM; under `COC(=O)c1cccc(-c2cc(Cl)c(C)cc2OCc2n[nH]c(=O)n2C)c1` [Example B42, Methyl 3-[5-chloro-4-methyl-2-[(4-methyl-5-oxo-1H-1,2,4-triazol-3-yl)methoxy]phenyl]benzoate], 21 nM; under `Cc1cc(OCc2n[nH]c(=O)n2C)c(-c2cccc(C(=O)O)c2)cc1Cl` [Example B43, 3-[5-Chloro-4-methyl-2-[(4-methyl-5-oxo-1H-1,2,4-triazol-3-yl)methoxy]phenyl]benzoic acid], 1100 nM.
In turn, `COC(=O)CCNC(=O)c1cccc(-c2cc(Cl)c(C)cc2OCc2n[nH]c(=O)n2C)c1` [Example B44, Methyl 3-[[3-[5-chloro-4-methyl-2-[(4-methyl-5-oxo-1H-1,2,4-triazol-3-yl)methoxy]phenyl]benzoyl]amino]propanoate] showed an IC50 of 13 nM.
Regarding `Cc1cc(OCc2n[nH]c(=O)n2C)c(-c2cccc(C(=O)N(C)CCO)c2)cc1Cl` [Example B45, 3-[5-Chloro-4-methyl-2-[(4-methyl-5-oxo-1H-1,2,4-triazol-3-yl)methoxy]phenyl]-N-(2-hydroxyethyl)-N-methylbenzamide], 29 nM corresponded to half-maximal inhibition (IC50).
Under `CCOC(=O)CNC(=O)c1cccc(-c2cc(Cl)c(C)cc2OCc2n[nH]c(=O)n2C)c1` [Example B46, Ethyl 2-[[3-[5-chloro-4-methyl-2-[(4-methyl-5-oxo-1H-1,2,4-triazol-3-yl)methoxy]phenyl]benzoyl]amino]acetate] stands 7 nM; under `Cc1cc(OCc2n[nH]c(=O)n2C)c(-c2cccc(C(=O)NCCC(=O)O)c2)cc1Cl` [Example B47], 82 nM; under `Cc1cc(OCc2n[nH]c(=O)n2C)c(-c2cccc(C(=O)NCC(=O)O)c2)cc1Cl` [Example B48], 192 nM.
Regarding `COC(=O)c1ccc(C)c(-c2cc(Cl)c(C)cc2OCc2n[nH]c(=O)n2C)c1` [Example B49, Methyl 3-[5-chloro-4-methyl-2-[(4-methyl-5-oxo-1H-1,2,4-triazol-3-yl)methoxy]phenyl]-4-methylbenzoate], the midpoint of inhibition, the IC50, lay at 8 nM.
